Common to all, as to assay: In vitro antibacterial activity test (2-fold agar dilution MIC)
What all share (type): cell-based
Settings in all cases: for MIC: read-out: Minimum inhibitory concentrations (MICs)
(In general: In agar dilution, organisms are placed on agar that contains the substance at set levels.)

For assay [1], the system named is Staphylococcus aureus 003 (MRSA). As for the experimental part:
(§1) The in vitro antibacterial activity of the compounds prepared in the Examples of the invention was determined as follows: after incubation of the corresponding bacterium for 18 h at 37° C., minimum inhibitory concentrations (MICs, μg/mL) were determined by the 2-fold agar dilution method with Mueller-Hinton Agar.

Assay [2] deals with Staphylococcus aureus 007 (MRSA). As for the experimental part: as §1
Assay [3] deals with Staphylococcus aureus 002 (MRSA). As for the experimental part: as §1
The test system of assay [4] is Staphylococcus aureus 005 (MRSA). As for the experimental part:
as §1

Assay [5] has as its system Staphylococcus aureus 006 (MRSA). On the procedure: as §1
Assay [6] deals with Staphylococcus aureus 008 (MRSA). As for the experimental part:
as §1

Assay [7] has as its system Staphylococcus aureus 004 (MRSA). As for the experimental part:
as §1

Assay [8] deals with Staphylococcus aureus 010 (MRSA). On the procedure: as §1
Assay [9] deals with Staphylococcus aureus 009 (MRSA). On the procedure:
as §1

Assay [10] has as its system Staphylococcus aureus 001 (MRSA). As for the experimental part:
as §1

Setting [11] is: MRSA Staphylococcus aureus 003, 2-fold agar dilution, Mueller-Hinton Agar, 18 h at 37° C.
Where [12] appears, read: MRSA Staphylococcus aureus 007, 2-fold agar dilution, Mueller-Hinton Agar, 18 h at 37° C.
The mark [13] stands for this setting: MRSA Staphylococcus aureus 002, 2-fold agar dilution, Mueller-Hinton Agar, 18 h at 37° C.
Where [14] appears, read: MRSA Staphylococcus aureus 005, 2-fold agar dilution, Mueller-Hinton Agar, 18 h at 37° C.
Where [15] appears, read: MRSA Staphylococcus aureus 006, 2-fold agar dilution, Mueller-Hinton Agar, 18 h at 37° C.
Setting [16] is: MRSA Staphylococcus aureus 008, 2-fold agar dilution, Mueller-Hinton Agar, 18 h at 37° C.
Setting [17] is: MRSA Staphylococcus aureus 004, 2-fold agar dilution, Mueller-Hinton Agar, 18 h at 37° C.
The mark [18] stands for this setting: MRSA Staphylococcus aureus 010, 2-fold agar dilution, Mueller-Hinton Agar, 18 h at 37° C.
[19] abbreviates: MRSA Staphylococcus aureus 009, 2-fold agar dilution, Mueller-Hinton Agar, 18 h at 37° C.
Where [20] appears, read: MRSA Staphylococcus aureus 001, 2-fold agar dilution, Mueller-Hinton Agar, 18 h at 37° C.
Setting [21] is: Staphylococcus aureus, MRSA, 18 h.

Values after ≈ are worked out from the molar mass of the structure shown. Read-outs that look alike come from different tables or passages of the source.

Regarding `O=C(CSc1ccccc1)N[C@@H]1C(=O)N2C(C(=O)O)=C(C=Cc3cc(-c4ccc(Br)cc4)no3)CS[C@H]12` [Compound 30], the “Minimum inhibitory concentrations (MICs)” value in assay [1] (setting [11]) is 6.250 µg/mL (≈ 10.4 µM); in [2] (setting [12]) it was below 0.002 µg/mL; in [3] (setting [13]), 0.002 µg/mL (≈ 0.00334 µM); in [4] (setting [14]), 0.098 µg/mL (≈ 0.164 µM); in assay [5] (setting [15]) it was 0.004 µg/mL (≈ 0.00668 µM); in [6] (setting [16]), 0.195 µg/mL (≈ 0.326 µM). The “Minimum inhibitory concentrations (MICs)” value in [7] (setting [17]) turned out to be 3.125 µg/mL (≈ 5.22 µM); in assay [8] (setting [18]), 0.195 µg/mL (≈ 0.326 µM); in assay [9] (setting [19]) it was 0.195 µg/mL (≈ 0.326 µM); in assay [10] (setting [20]) it was 3.125 µg/mL (≈ 5.22 µM).
For the compound `CO/N=C(\C(=O)N[C@@H]1C(=O)N2C(C(=O)O)=C(COC(C)=O)CS[C@H]12)c1csc(N)n1` [cefotaxime], the MIC is above 100 µg/mL in [1] (setting [11]); 1.56 µg/mL (≈ 3.43 µM) in assay [2] (setting [12]); 3.12 µg/mL (≈ 6.86 µM) in assay [3] (setting [13]); 6.25 µg/mL (≈ 13.7 µM) in [4] (setting [14]); 1.56 µg/mL (≈ 3.43 µM) in [5] (setting [15]); 1.56 µg/mL (≈ 3.43 µM) in assay [6] (setting [16]). The MIC was above 10 µg/mL in assay [7] (setting [17]), 6.25 µg/mL (≈ 13.7 µM) in [8] (setting [18]), 6.25 µg/mL (≈ 13.7 µM) in [9] (setting [19]) and 25 µg/mL (≈ 54.9 µM) in assay [10] (setting [20]).
As for `CN[C@H](CC(C)C)C(=O)N[C@H]1C(=O)N[C@@H](CC(N)=O)C(=O)N[C@H]2C(=O)N[C@H]3C(=O)N[C@H](C(=O)N[C@H](C(=O)O)c4cc(O)cc(O)c4-c4cc3ccc4O)[C@H](O)c3ccc(c(Cl)c3)Oc3cc2cc(c3O[C@@H]2O[C@H](CO)[C@@H](O)[C@H](O)[C@H]2O[C@H]2C[C@](C)(N)[C@H](O)[C@H](C)O2)Oc2ccc(cc2Cl)[C@H]1O` [vancomycin], the MIC in assay [1] (setting [21]) was 0.781 µg/mL (≈ 0.539 µM); in assay [2] (setting [21]), 0.781 µg/mL (≈ 0.539 µM); in assay [3] (setting [21]), 1.56 µg/mL (≈ 1.08 µM); in [4] (setting [21]), 0.781 µg/mL (≈ 0.539 µM); in assay [5] (setting [21]), 0.781 µg/mL (≈ 0.539 µM); in [6] (setting [21]) it was 0.781 µg/mL (≈ 0.539 µM). Moreover, the MIC in assay [7] (setting [21]) came to 0.781 µg/mL (≈ 0.539 µM); in [8] (setting [21]), 0.781 µg/mL (≈ 0.539 µM); in assay [9] (setting [21]), 0.781 µg/mL (≈ 0.539 µM); in assay [10] (setting [21]), 3.12 µg/mL (≈ 2.16 µM).

Values taken from patent US20070099890A1, “Novel cephalosporin derivatives, its pharmaceutically acceptable salts and manufacturing process thereof” (priority 2003, published 2007).
